# Measurements reported in article PMC9151520 (Archives of Toxicology, 2022).
# Structures can show the parent of a compound that is named as a salt. Where two headings read alike, the source gives them in different places.
# What was measured:
# [1] = tested on: p53 signaling (p53RE-bla HCT-116 cells)
# [2] = tested on: p53 signaling (p53RE-bla HCT-116 cells); remark: listed apart in the source
# [3] = tested on: p53 signaling (p53RE-bla HCT-116 cells); assay: cells; assay type: cell-based; settings: for EC50 / Emax: Homo sapiens
# [4] = tested on: p53RE-bla HCT-116 cells; assay: cells; settings: Homo sapiens
# [5] = tested on: p53RE-bla HCT-116 cells
# [6] = tested on: p53 signaling (p53RE-bla HCT-116 cells); assay: cells; settings: Homo sapiens
# [7] = tested on: p53 signaling (p53RE-bla HCT-116 cells); assay: cells; assay type: cell-based; settings: Homo sapiens; for EC50: HCT-116, 0.5 h
# [8] = tested on: p53 signaling (p53RE-bla HCT-116 cells); assay: cells; assay type: cell-based; settings: Homo sapiens; for EC50: HCT-116
# [9] = tested on: p53 signaling (p53RE-bla HCT-116 cells); assay: cells; settings: Homo sapiens; for EC50: HCT-116, read-out: p53 activation EC50, HLM
# [10] = HCT-116, read-out: p53 activation EC50, cherry pick confirmation
# [11] = HCT-116, read-out: p53 activation EC50, primary screening
# [12] = HCT-116, read-out: p53 activation efficacy, cherry pick confirmation
# [13] = HCT-116, read-out: p53 activation efficacy, primary screening
# [14] = HCT-116, read-out: Viability EC50, cherry pick confirmation
# [15] = HCT-116, read-out: p53 activation efficacy
# [16] = HCT-116, read-out: EC50, p53 activation, cherry pick confirmation
# [17] = HCT-116, read-out: EC50, p53 activation, primary screening
# [18] = HCT-116, read-out: Efficacy, p53 activation, cherry pick confirmation
# [19] = HCT-116, read-out: Efficacy, p53 activation, primary screening
# [20] = HCT-116, read-out: EC50, viability, cherry pick confirmation
# [21] = read-out: p53 activation EC50, RLM
# [22] = HCT-116, read-out: p53 activation EC50, RLM
smiles,measurement,setting,value
CCOC(=O)C1(c2ccccc2)CCN(CCC(C#N)(c2ccccc2)c2ccccc2)CC1 [Diphenoxylate hydrochloride],"p53 activation EC50, cherry pick confirmation",[1],inactive
same,"p53 activation EC50, primary screening",[1],inactive
same,"p53 activation efficacy, cherry pick confirmation",[1],inactive
same,"p53 activation efficacy, primary screening",[1],inactive
same,"p53 activation EC50, cherry pick confirmation",[2],inactive
same,"p53 activation EC50, primary screening",[2],inactive
same,"p53 activation efficacy, cherry pick confirmation",[2],inactive
same,"p53 activation efficacy, primary screening",[2],inactive
same,EC50,[3]; [10],8.23 µM
same,EC50,[3]; [11],6.87 µM
same,Emax,[3]; [12],152%
same,Emax,[3]; [13],77.1%
same,EC50,[4]; [14],3.16 µM
same,"Viability EC50, cherry pick confirmation",[5],inactive
same,"Viability EC50, primary screening",[5],inactive
same,"Viability efficacy, primary screening",[5],inactive
CCOP(=S)(OCC)OC(Cl)C(Cl)(Cl)Cl (centres unmarked) [Chlorethoxyfos],p53 activation efficacy,[1],53.0303
same,EC50,[1]; read-out: p53 activation EC50,11.7 µM
same,EC50,[6]; HCT-116,11.4 µM
same,Emax,"[6]; HCT-116, read-out: efficacy",35.9%
same,Emax,[6]; [15],43.1%
same,p53 activation EC50,[2],inactive
same,p53 activation EC50,[3],inactive
same,p53 activation efficacy,[3],inactive
same,EC50,[7],0.75 µM
same,Viability EC50,[5],inactive
same,Viability efficacy,[5],inactive
same,EC50,[8],7.79 µM
same,Emax,[9]; [15],44%
Cc1nc(N)nc(N)c1-c1ccc(Cl)c(Cl)c1 [Methodichlorophen],"EC50, p53 activation, cherry pick confirmation",[1],inactive
same,"EC50, p53 activation, primary screening",[1],inactive
same,"Efficacy, p53 activation, cherry pick confirmation",[1],inactive
same,"Efficacy, p53 activation, primary screening",[1],inactive
same,"EC50, p53 activation, cherry pick confirmation",[2],inactive
same,"EC50, p53 activation, primary screening",[2],inactive
same,"Efficacy, p53 activation, cherry pick confirmation",[2],inactive
same,"Efficacy, p53 activation, primary screening",[2],inactive
same,EC50,[3]; [16],9.01 µM
same,EC50,[3]; [17],5.92 µM
same,Emax,[3]; [18],31.4%
same,Emax,[3]; [19],42.9%
same,EC50,[4]; [20],1.58 µM
same,"EC50, viability, cherry pick confirmation",[5],inactive
same,"EC50, viability, primary screening",[5],inactive
same,"Efficacy, viability, primary screening",[5],inactive
CC(C)C[C@H](NC(=O)[C@H](CCc1ccccc1)NC(=O)CN1CCOCC1)C(=O)N[C@@H](Cc1ccccc1)C(=O)N[C@@H](CC(C)C)C(=O)[C@@]1(C)CO1 [Carfilzomib],"p53 activation EC50, cherry pick confirmation",[1],inactive
same,"p53 activation EC50, primary screening",[1],inactive
same,"p53 activation efficacy, cherry pick confirmation",[1],inactive
same,"p53 activation efficacy, primary screening",[1],inactive
same,"p53 activation EC50, cherry pick confirmation",[2],inactive
same,"p53 activation EC50, primary screening",[2],inactive
same,"p53 activation efficacy, cherry pick confirmation",[2],inactive
same,"p53 activation efficacy, primary screening",[2],inactive
same,EC50,[3]; [10],0.0597 µM
same,EC50,[3]; [11],0.142 µM
same,Emax,[3]; [12],111%
same,Emax,[3]; [13],82%
same,EC50,"[4]; HCT-116, read-out: Viability EC50, primary screening",0.75 µM
same,"Viability EC50, cherry pick confirmation",[5],inactive
same,"Viability EC50, primary screening",[5],inactive
CN(C)c1ccc2nc3ccc(=[N+](C)C)cc-3sc2c1 [Methylene blue],"p53 activation EC50, cherry pick confirmation",[1],inactive
same,"p53 activation EC50, primary screening",[1],inactive
same,"p53 activation efficacy, cherry pick confirmation",[1],inactive
same,"p53 activation efficacy, primary screening",[1],inactive
same,"p53 activation EC50, cherry pick confirmation",[2],inactive
same,"p53 activation EC50, primary screening",[2],inactive
same,"p53 activation efficacy, cherry pick confirmation",[2],inactive
same,"p53 activation efficacy, primary screening",[2],inactive
same,EC50,[3]; [10],15.3 µM
same,EC50,[3]; [11],10.3 µM
same,Emax,[3]; [12],53.2%
same,Emax,[3]; [13],53.4%
same,EC50,[4]; [14],15.8 µM
same,"Viability EC50, cherry pick confirmation",[5],inactive
same,"Viability EC50, primary screening",[5],inactive
same,"Viability efficacy, primary screening",[5],inactive
CC[C@@]1(O)C(=O)OCc2c1cc1n(c2=O)Cc2cc3c(CN(C)C)c(O)ccc3nc2-1 [Topotecan hydrochloride],"EC50, p53 activation, cherry pick confirmation",[1],inactive
same,"EC50, p53 activation, primary screening",[1],inactive
same,"Efficacy, p53 activation, cherry pick confirmation",[1],inactive
same,"Efficacy, p53 activation, primary screening",[1],inactive
same,"EC50, p53 activation, cherry pick confirmation",[2],inactive
same,"EC50, p53 activation, primary screening",[2],inactive
same,"Efficacy, p53 activation, cherry pick confirmation",[2],inactive
same,"Efficacy, p53 activation, primary screening",[2],inactive
same,EC50,[3]; [16],0.589 µM
same,EC50,[3]; [17],0.0771 µM
same,Emax,[3]; [18],179%
same,Emax,[3]; [19],69.5%
same,EC50,[4]; [20],3.98 µM
same,"EC50, viability, cherry pick confirmation",[5],inactive
same,"EC50, viability, primary screening",[5],inactive
same,"Efficacy, viability, primary screening",[5],inactive
Oc1ccc(C(c2ccc(O)cc2)(C(F)(F)F)C(F)(F)F)cc1 [Bisphenol AF],"EC50, p53 activation, cherry pick confirmation",[1],inactive
same,"EC50, p53 activation, primary screening",[1],inactive
same,"Efficacy, p53 activation, cherry pick confirmation",[1],inactive
same,"Efficacy, p53 activation, primary screening",[1],inactive
same,"EC50, p53 activation, cherry pick confirmation",[2],inactive
same,"EC50, p53 activation, primary screening",[2],inactive
same,"Efficacy, p53 activation, cherry pick confirmation",[2],inactive
same,"Efficacy, p53 activation, primary screening",[2],inactive
same,EC50,[3]; [16],31.7 µM
same,EC50,[3]; [17],28.9 µM
same,Emax,[3]; [18],55.4%
same,Emax,[3]; [19],33.6%
same,EC50,"[4]; HCT-116, read-out: EC50, viability, primary screening",47.4 µM
same,"EC50, viability, cherry pick confirmation",[5],inactive
same,"EC50, viability, primary screening",[5],inactive
same,"Efficacy, viability, cherry pick confirmation",[5],inactive
same,EC50,"[5]; read-out: EC50, viability, primary screening",47.6 µM
CCOP(=S)(OCC)O/N=C(\C#N)c1ccccc1 [Phoxim],EC50,[1]; [21],5.83 µM
same,EC50,[6]; HCT-116,4.42 µM
same,Emax,"[6]; HCT-116, read-out: efficacy",34.4%
same,EC50,[6]; [22],3.04 µM
same,"p53 activation EC50, HLM",[2],inactive
same,"p53 activation EC50, No MS",[3],inactive
same,"p53 activation Efficacy, No MS",[3],inactive
same,EC50,[7],5.35 µM
same,Emax,"[7]; HCT-116, read-out: efficacy",43.5%
same,"Viability EC50, HLM",[5],inactive
same,"Viability EC50, No MS",[5],inactive
same,"Viability EC50, RLM",[5],inactive
same,"Viability Efficacy, HLM",[5],inactive
same,"Viability Efficacy, No MS",[5],inactive
same,"Viability Efficacy, RLM",[5],inactive
same,EC50,[8],5.3 µM
same,Emax,"[8]; HCT-116, read-out: efficacy",42.2%
same,EC50,[9],2.17 µM
COP(N)(=O)SC (centres unmarked) [Methamidophos],EC50,[1]; [21],13.8 µM
same,EC50,[6]; HCT-116,11.4 µM
same,Emax,"[6]; HCT-116, read-out: efficacy",48.9%
same,EC50,[6]; [22],11.2 µM
same,"p53 activation EC50, HLM",[2],inactive
same,"p53 activation EC50, No MS",[3],inactive
same,"p53 activation Efficacy, No MS",[3],inactive
same,EC50,[7],6.02 µM
same,"Viability EC50, HLM",[5],inactive
same,"Viability EC50, No MS",[5],inactive
same,"Viability EC50, RLM",[5],inactive
same,"Viability Efficacy, HLM",[5],inactive
same,"Viability Efficacy, No MS",[5],inactive
same,"Viability Efficacy, RLM",[5],inactive
same,EC50,[8],9.77 µM
same,EC50,[9],2.04 µM
CC(C)(C)[C@H]1CC[C@H](CC2=C(O)C(=O)c3ccccc3C2=O)CC1 [Buparvaquone],"p53 activation EC50, cherry pick confirmation",[1],inactive
same,"p53 activation EC50, primary screening",[1],inactive
same,"p53 activation efficacy, cherry pick confirmation",[1],inactive
same,"p53 activation efficacy, primary screening",[1],inactive
same,"p53 activation EC50, cherry pick confirmation",[2],inactive
same,"p53 activation EC50, primary screening",[2],inactive
same,"p53 activation efficacy, cherry pick confirmation",[2],inactive
same,"p53 activation efficacy, primary screening",[2],inactive
same,"p53 activation EC50, cherry pick confirmation",[3],inactive
same,"p53 activation efficacy, cherry pick confirmation",[3],inactive
same,EC50,[3]; [11],1.41 µM
same,Emax,[3]; [13],33.8%
same,EC50,[4]; [14],1.99 µM
same,"Viability EC50, cherry pick confirmation",[5],inactive
same,"Viability EC50, primary screening",[5],inactive
same,"Viability efficacy, primary screening",[5],inactive
COP(=S)(OC)Oc1ccc(SC)c(C)c1 [Fenthion],EC50,[1]; [21],7.2 µM
same,EC50,[6]; HCT-116,7.81 µM
same,Emax,"[6]; HCT-116, read-out: efficacy",39%
same,EC50,[6]; [22],8.91 µM
same,"p53 activation EC50, HLM",[2],inactive
same,"p53 activation EC50, No MS",[3],inactive
same,"p53 activation Efficacy, No MS",[3],inactive
same,EC50,[7],1.28 µM
same,"Viability EC50, HLM",[5],inactive
same,"Viability EC50, No MS",[5],inactive
same,"Viability EC50, RLM",[5],inactive
same,"Viability Efficacy, HLM",[5],inactive
same,"Viability Efficacy, No MS",[5],inactive
same,"Viability Efficacy, RLM",[5],inactive
same,EC50,[8],8.86 µM
same,EC50,[9],1.1 µM
CNC(=O)O/N=C(\SC)C(=O)N(C)C [Oxamyl],EC50,[1]; [21],10.9 µM
same,EC50,[6]; HCT-116,14.2 µM
same,Emax,"[6]; HCT-116, read-out: efficacy",58.1%
same,EC50,[6]; [22],14.1 µM
same,"p53 activation EC50, HLM",[2],inactive
same,"p53 activation EC50, No MS",[3],inactive
same,"p53 activation Efficacy, No MS",[3],inactive
same,EC50,[7],14.4 µM
same,"Viability EC50, HLM",[5],inactive
same,"Viability EC50, No MS",[5],inactive
same,"Viability EC50, RLM",[5],inactive
same,"Viability Efficacy, HLM",[5],inactive
same,"Viability Efficacy, No MS",[5],inactive
same,"Viability Efficacy, RLM",[5],inactive
same,EC50,[8],22.4 µM
same,EC50,[9],2.96 µM
